In patent EP0132540A1 (priority 1981, dated 1983):
In brackets after ≈: the same amount, converted by molar mass.

Columns and labels:
[1] = tested on: Influenza A0; assay: microbe, parasite or virus in culture; assay type: cell-based; details: Virus A = Influenza A0, MDCK, Vero and HEL cells
[2] = tested on: Influenza A1; assay: microbe, parasite or virus in culture; assay type: cell-based
[3] = tested on: Influenza B; assay: microbe, parasite or virus in culture; assay type: cell-based
[4] = tested on: Parainfluenza Type 3; assay: microbe, parasite or virus in culture; assay type: cell-based; details: Virus E = Parainfluenza Type 3
[5] = tested on: ECHO; assay: microbe, parasite or virus in culture; assay type: cell-based
[6] = tested on: Coxsackie Type B5; assay: microbe, parasite or virus in culture; assay type: cell-based; details: Virus G = Coxsackie Type B5
[7] = tested on: Rhino; assay: microbe, parasite or virus in culture; assay type: cell-based
[8] = tested on: influenza A0 virus; assay: Protective action against the death of mice infected with influenza A0 virus; assay type: in vivo, ICR female mice; details: for Survival rate: twice a day for 14 days, survivors at 15th day
From the text: Experimental Example 2 Protective Action against the Death of Mice. Infected with Influenza A0 Virus,
After the influenza A0 virus was inoculated to groups each -consisting of ten ICR female mice (16 - 18 g) intranasally under light anesthesia with ether, compound of the invention was given orally or intraperitoneally as multiple doses of twice a day starting one hour after infection and continued for 14 days. The result of the treatment was shown as the increase in percentage of survivors at 15th day.

[9] = Acute toxicity in mice; parameters: species or system ddy male mice; details: mouse, in vivo, suspended in 5% Arabic gum solution, mortality observed for 7 days
Protocol: Experimental Example 7: Acute Toxicity in Mice
Each compound of the invention was suspended in 5% Arabic gum solution and given orally (p.o.) or intraperitoneally (i.p.) to groups of ten ddy male mice weighed from 24 to 26 g at the dosage volume of 10 ml/kg. […] LD50 was determined according to the method of Wilcoxon and Litchfield.

[10] = Physicochemical properties (qualitative solubility); details: qualitative solubility in solvents
[11] = tested on: influenza virus B/GL; assay type: in vivo, ICR female mice; details: result in words, oral
[12] = ip, Intra-peritoneal administration

Row | Compound | MIC [1] [µg/mL] | MIC [2] [µg/mL] | MIC [3] [µg/mL] | MIC [4] [µg/mL] | MIC [5] [µg/mL] | MIC [6] [µg/mL] | MIC [7] [µg/mL] | Survival rate ([8]; intraperitoneal, 100 mg/kg) [%] | Survival rate ([8]; oral, 300 mg/kg) [%] | LD50 at 168 h [9, 12] [mg/kg] | LD50 at 168 h ([9]; Oral administration) [mg/kg] | Property (solubility) [10] | Survival rate ([8]; intraperitoneal, 10 mg/kg) [%] | Survival rate ([8]; intraperitoneal, 30 mg/kg) [%] | Survival rate ([8]; oral, 30 mg/kg) [%] | Survival rate ([8]; oral, 100 mg/kg) [%] | protective action against death due to the infection ([8]; result in words, oral or intraperitoneal) | survival rates of the treated groups as compared with that of the control [11]
1 | CNS(=O)(=O)c1cc(C(=O)O)ccc1Cl [Compound 1, 4-chloro-3-methylamino-sulfonylbenzoic acid] | 30 (≈ 120 µM) | 300 (≈ 1200 µM) | 300 (≈ 1200 µM) | 300 (≈ 1200 µM) | 300 (≈ 1200 µM) | 100 (≈ 401 µM) | 300 (≈ 1200 µM) | 40 | 50 | > 1000 | > 3000 | white crystalline powder; insoluble in benzene, hexane; soluble in hot water, methanol |  |  |  |  |  | 
2 | CCNS(=O)(=O)c1cc(C(=O)O)ccc1Cl [Compound 2, 4-chloro-3-ethylamino-sulfonylbenzoic acid] | 30 (≈ 114 µM) | 300 (≈ 1140 µM) | 300 (≈ 1140 µM) | 300 (≈ 1140 µM) | 300 (≈ 1140 µM) | 300 (≈ 1140 µM) | 300 (≈ 1140 µM) | 40 | 50 | > 1000 | > 3000 | white crystalline powder; insoluble in benzene, hexane; soluble in hot water, methanol |  |  |  |  |  | 
3 | CN(C)S(=O)(=O)c1cc(C(=O)O)ccc1Cl [Compound 3, 4-chloro-3-dimethyl-aminosulfonylbenzoic acid] | 30 (≈ 114 µM) | 300 (≈ 1140 µM) | 300 (≈ 1140 µM) | 300 (≈ 1140 µM) | 300 (≈ 1140 µM) | 300 (≈ 1140 µM) | 300 (≈ 1140 µM) | 40 | 50 | > 1000 | > 3000 | white crystalline powder; insoluble in benzene, hexane; soluble in hot water, methanol |  |  |  |  |  | 
4 | CC(C)NS(=O)(=O)c1cc(C(=O)O)ccc1Cl [Compound 4, 4-chloro-3-isopropyl-aminoslfonylbenzoic acid] | 30 (≈ 108 µM) | 100 (≈ 360 µM) | 300 (≈ 1080 µM) | 300 (≈ 1080 µM) | 300 (≈ 1080 µM) | 300 (≈ 1080 µM) | 300 (≈ 1080 µM) | 40 | 40 | > 1000 | > 3000 | white crystalline powder; insoluble in benzene, hexane; soluble in hot water, methanol |  |  |  |  |  | 
5 | O=C(O)c1ccc(Cl)c(S(=O)(=O)Nc2ccccc2)c1 [Compound 5, 3-anilinosulfonyl-4-chlorobenzoic acid] | 30 (≈ 96.2 µM) | 300 (≈ 962 µM) | 300 (≈ 962 µM) | 300 (≈ 962 µM) | 300 (≈ 962 µM) | 100 (≈ 321 µM) | 300 (≈ 962 µM) | 40 | 40 | 968 | > 3000 | white crystalline powder; insoluble in benzene, hexane; soluble in hot water, methanol |  |  |  |  |  | 
6 | O=C(O)c1ccc(Cl)c(S(=O)(=O)N2CCOCC2)c1 [Compound 6, 4-chloro-3-morpholino-sulfonylbenzoic acid] | 30 (≈ 98.1 µM) | 300 (≈ 981 µM) | 300 (≈ 981 µM) | 300 (≈ 981 µM) | 100 (≈ 327 µM) | 300 (≈ 981 µM) | 300 (≈ 981 µM) | 50 | 50 | > 1000 | > 3000 | white crystalline powder; insoluble in benzene, hexane; soluble in hot water, methanol |  |  |  |  |  | 
7 | NS(=O)(=O)c1cc(C(=O)O)c(Cl)cc1Cl [Compound 7, 5-aminosulfonyl-2,4-dichlorobenzoic acid] | 10 (≈ 37 µM) | 300 (≈ 1110 µM) | 100 (≈ 370 µM) | 100 (≈ 370 µM) | 100 (≈ 370 µM) | 100 (≈ 370 µM) | 100 (≈ 370 µM) |  |  | > 1000 | > 3000 | white crystalline powder; insoluble in benzene, hexane; soluble in hot water, methanol | 40 | 50 | 40 | 60 | extremely excellent activity | 
8 | COC(=O)c1ccc(F)c(S(N)(=O)=O)c1 [Compound 8, 3-aminosulfonyl-4-fluoromethylbenzoate] |  |  |  |  |  |  |  |  |  | > 1000 | > 3000 |  |  |  |  |  |  | 
9 | CC(C)OC(=O)c1ccc(Br)c(S(N)(=O)=O)c1 [Compound 9, 3-aminosulfonyl-4-bromo-isopropylbenzoate] |  |  |  |  |  |  |  |  |  | > 1000 | > 3000 |  |  |  |  |  |  | 
10 | CCCCOC(=O)c1ccc(Br)c(S(N)(=O)=O)c1 [Compound 10, 3-aminosulfonyl-4-bromo-n-butylbenzoate] |  |  |  |  |  |  |  |  |  | > 1000 | > 3000 |  |  |  |  |  |  | extremely excellent activity
11 | C=CCOC(=O)c1cc(S(N)(=O)=O)c(Cl)cc1Cl [Compound 11, 5-aminosulfonyl-2,4-dichloro-allylbenzoate] |  |  |  |  |  |  |  |  |  | > 1000 | > 3000 |  |  |  |  |  |  | 
